Experimental data as given in the supplement of paper PMC10307832.

Assays:
Assay in all cases: relative viability (nuclei count vs DMSO), 5 days (fraction); higher = more cells survive
Wnt-C59 + Navitoclax = compound: CC1=NC=CC(=C1)C2=CC=C(C=C2)CC(=O)NC3=CC=C(C=C3)C4=CN=CC=C4 [Wnt-C59] + CC1(C)CCC(c2ccc(Cl)cc2)=C(CN2CCN(c3ccc(C(=O)NS(=O)(=O)c4ccc(N[C@H](CCN5CCOCC5)CSc5ccccc5)c(S(=O)(=O)C(F)(F)F)c4)cc3)CC2)C1 [Navitoclax] (partner 0.5 µM)
Method in brief: (§1)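 A single step with final 0.05% Triton X-100, 1% formaldehyde and 1 ug/ml Hoechst fixed the cells and stained nuclei 5 days after treatment. Lung cancer cell lines in 1536-well plates had been treated by pin tool the day after seeding with one drug alone or a fixed anchor-drug dose plus five library-drug doses (not always all listed) in √10 steps, and nuclei were counted on 4× images. Relative viability is the ratio of nuclei in treated wells to nuclei in vehicle wells, taken as the median of duplicate plates.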

Lapatinib + Alpelisib = compound: CS(=O)(=O)CCNCc1ccc(-c2ccc3ncnc(Nc4ccc(OCc5cccc(F)c5)c(Cl)c4)c3c2)o1 [Lapatinib] + Cc1nc(NC(=O)N2CCC[C@H]2C(N)=O)sc1-c1ccnc(C(C)(C)C(F)(F)F)c1 [Alpelisib] (partner 2 µM)
Method in brief: as §1

Lapatinib + Palbociclib = compound: CS(=O)(=O)CCNCc1ccc(-c2ccc3ncnc(Nc4ccc(OCc5cccc(F)c5)c(Cl)c4)c3c2)o1 [Lapatinib] + CC(=O)c1c(C)c2cnc(Nc3ccc(N4CCNCC4)cn3)nc2n(C2CCCC2)c1=O [Palbociclib] (partner 0.5 µM)
Method in brief: as §1

Lapatinib + Dasatinib = compound: CS(=O)(=O)CCNCc1ccc(-c2ccc3ncnc(Nc4ccc(OCc5cccc(F)c5)c(Cl)c4)c3c2)o1 [Lapatinib] + Cc1nc(Nc2ncc(C(=O)Nc3c(C)cccc3Cl)s2)cc(N2CCN(CCO)CC2)n1 [Dasatinib] (partner 0.075 µM)
Method in brief: as §1

Cell Line: UMC-11
- relative viability (Wnt-C59 + Navitoclax; first compound 0.001 µM): 0.312
- relative viability (Wnt-C59 + Navitoclax; first compound 0.01 µM): 0.315
- relative viability (Wnt-C59 + Navitoclax; first compound 0.03162 µM): 0.265
- relative viability (Wnt-C59 + Navitoclax; first compound 0.1 µM): 0.339
- relative viability (Lapatinib + Alpelisib; first compound 0.02 µM): 0.861
- relative viability (Lapatinib + Alpelisib; first compound 0.06325 µM): 0.933
- relative viability (Lapatinib + Alpelisib; first compound 0.2 µM): 0.986
- relative viability (Lapatinib + Alpelisib; first compound 0.6325 µM): 0.887
- relative viability (Lapatinib + Alpelisib; first compound 2 µM): 1.09
- relative viability (Lapatinib + Palbociclib; first compound 0.02 µM): 0.391
- relative viability (Lapatinib + Palbociclib; first compound 0.06325 µM): 0.347
- relative viability (Lapatinib + Palbociclib; first compound 0.2 µM): 0.301
- relative viability (Lapatinib + Palbociclib; first compound 0.6325 µM): 0.282
- relative viability (Lapatinib + Palbociclib; first compound 2 µM): 0.27
- relative viability (Lapatinib + Dasatinib; first compound 0.02 µM): 0.45
- relative viability (Lapatinib + Dasatinib; first compound 0.06325 µM): 0.404
- relative viability (Lapatinib + Dasatinib; first compound 0.2 µM): 0.52
- relative viability (Lapatinib + Dasatinib; first compound 0.6325 µM): 0.453
- relative viability (Lapatinib + Dasatinib; first compound 2 µM): 0.421
